# Laboratory results published in paper PMC2074348, “Preclinical in vivo efficacy of two 9-dihydrotaxane analogues against human and murine tumours” (British Journal of Cancer, 1996).
# Where two headings read alike, the source gives them in different places.
# Key:
# [1] = system: A549; assay: In vitro tumour cell cytotoxicity, colorimetric MTT assay, 72 h; type: cell-based, human; conditions: Homo sapiens, 72 h exposure, read-out: IC50
# [2] = system: breast tumour; design: method as in Holmes et al., 1991; conditions: breast tumour patients who had failed one previous course of chemotherapy; ref Holmes et al., 1991; cited from earlier work
# [3] = system: murine M109 solid tumour; assay: In vivo efficacy vs subcutaneous M109 solid tumour
# [4] = system: BDF mice bearing B16F10 ascites tumours; conditions: maximum dose yielding <20% lethality following five i.p. doses once daily
# [5] = system: P388; assay: In vitro tumour cell cytotoxicity, colorimetric MTT assay, 72 h; type: cell-based, murine; conditions: Mus musculus, 72 h exposure, read-out: IC50
# [6] = system: human MX-1 xenograft solid tumour; conditions: for Delay (1.0 g) (footnote: delay to reach mean tumour mass = 0.5 g, compared with untreated) / Per cent cures (mice with no palpable tumours, day 60) / Per cent toxicity / TWI (per cent tumour weight inhibition when untreated control mean = 0.5 g): q.d., i.p., days 1-5 after inoculation, s.c. xenograft
# [7] = system: murine B16F10 melanoma ascites tumour; assay: In vivo efficacy vs i.p. B16F10 melanoma ascites tumour; conditions: for %ILS (group mean increase in lifespan) / MST (mean survival time ± s.d.) / Per cent toxicity (mice with premature death) / Per cent cures (mice alive 60 days after inoculation): q.d., i.p., days 1-5 after inoculation, BDF1 mice
# [8] = mouse, in vivo, ip, 20 mg/kg
# [9] = system: ovarian tumours; design: method as in McGuire et al., 1989; conditions: ovarian tumours that had failed cisplatinum therapy; ref McGuire et al., 1989; cited from earlier work
# [10] = system: B16F10; assay: In vitro tumour cell cytotoxicity, colorimetric MTT assay, 72 h; type: cell-based, murine; conditions: Mus musculus, B16-F10, 72 h exposure, read-out: IC50
# [11] = in vivo; conditions: male, CD-1, mouse, ip, 20 mg/kg
# [12] = system: HT-29; assay: In vitro tumour cell cytotoxicity, colorimetric MTT assay, 72 h; type: cell-based, human; conditions: Homo sapiens, 72 h exposure, read-out: IC50
# [13] = dose 6.25 mg kg-1 per day, q.d., i.p., days 1, 5, 9 after inoculation, s.c. tumour, BDF1 mice
# [14] = dose 12.5 mg kg-1 per day, q.d., i.p., days 1, 5, 9 after inoculation, s.c. tumour, BDF1 mice
# [15] = dose 25 mg kg-1 per day, q.d., i.p., days 1, 5, 9 after inoculation, s.c. tumour, BDF1 mice
# [16] = dose 6.25 mg kg-1 per day, nude mice
# [17] = dose 12.5 mg kg-1 per day, nude mice
# [18] = dose 25 mg kg-1 per day, nude mice
# [19] = once daily on days 1-5 after inoculation
# [20] = at non-toxic doses, i.p. once daily for 5 consecutive days
compound,measurement,setting,value
"CC(=O)O[C@H]1C(=O)[C@@]2(C)[C@H]([C@H](OC(=O)c3ccccc3)[C@]3(O)C[C@H](OC(=O)[C@H](O)[C@@H](NC(=O)c4ccccc4)c4ccccc4)C(C)=C1C3(C)C)[C@]1(OC(C)=O)CO[C@@H]1C[C@@H]2O [Paclitaxel, reference compound]",IC50,[1],3.4 ng/mL
same,Response rate,[2],48%
same,Tumour weight inhibition (TWI) when untreated mice had a mean tumour mass of 1 g,[3],47%
same,"Delay (1.0 g): delay to reach mean tumour mass = 1.0 g, compared with untreated",[3]; [13],0.4 days
same,"Per cent cures (mice with no palpable tumours, day 60)",[3]; [13],0%
same,Per cent toxicity,[3]; [13],0%
same,TWI (per cent tumour weight inhibition when untreated control mean = 1.0 g),[3]; [13],22%
same,Days (1.0 g): days to reach mean tumour mass = 1.0 g ± s.d.,[3]; [14],12.6+ 1.0 days
same,"Delay (1.0 g): delay to reach mean tumour mass = 1.0 g, compared with untreated",[3]; [14],0.6 days
same,"Per cent cures (mice with no palpable tumours, day 60)",[3]; [14],0%
same,Per cent toxicity,[3]; [14],0%
same,TWI (per cent tumour weight inhibition when untreated control mean = 1.0 g),[3]; [14],40%
same,"Delay (1.0 g): delay to reach mean tumour mass = 1.0 g, compared with untreated",[3]; [15],0.9 days
same,"Per cent cures (mice with no palpable tumours, day 60)",[3]; [15],0%
same,Per cent toxicity,[3]; [15],30%
same,TWI (per cent tumour weight inhibition when untreated control mean = 1.0 g),[3]; [15],47%
same,Delay in solid tumour growth to 1 g,[3]; paclitaxel at a non-toxic dose,0.6 days
same,MTD (q.d. days 1-5),[4],25 mg kg-1 per day
same,IC50,[5],9.9 ng/mL
same,Optimal dose,"[6]; administered on days 1-5 after inoculation, nude mice",12.5 mg kg-1 per dose
same,Tumour weight inhibition (TWI) when untreated mice had a mean tumour mass of 0.5 g,"[6]; analogues optimally, paclitaxel at non-toxic doses",80%
same,"Delay (1.0 g) (footnote: delay to reach mean tumour mass = 0.5 g, compared with untreated)",[6]; [16],1.4 days
same,"Per cent cures (mice with no palpable tumours, day 60)",[6]; [16],0%
same,Per cent toxicity,[6]; [16],0%
same,TWI (per cent tumour weight inhibition when untreated control mean = 0.5 g),[6]; [16],42%
same,"Delay (1.0 g) (footnote: delay to reach mean tumour mass = 0.5 g, compared with untreated)",[6]; [17],13.4 days
same,"Per cent cures (mice with no palpable tumours, day 60)",[6]; [17],10%
same,Per cent toxicity,[6]; [17],0%
same,TWI (per cent tumour weight inhibition when untreated control mean = 0.5 g),[6]; [17],80%
same,"Delay (1.0 g) (footnote: delay to reach mean tumour mass = 0.5 g, compared with untreated)",[6]; [18],19.1 days
same,"Per cent cures (mice with no palpable tumours, day 60)",[6]; [18],30%
same,Per cent toxicity,[6]; [18],40%
same,TWI (per cent tumour weight inhibition when untreated control mean = 0.5 g),[6]; [18],100%
same,Cure rate,[6]; [19],10%
same,Delay in tumour growth compared with untreated controls,[6]; [19],13.4 days
same,Cure rate at optimal non-toxic dose,[7]; [20],0%
same,Optimal increase in life span (ILS),[7]; [20],96%
same,%ILS (group mean increase in lifespan),[7]; dose 6.25 mg kg-1 per day,34%
same,MST (mean survival time ± s.d.),[7]; dose 6.25 mg kg-1 per day,26.4 ± 3.4 days
same,Per cent toxicity (mice with premature death),[7]; dose 6.25 mg kg-1 per day,0%
same,%ILS (group mean increase in lifespan),[7]; dose 12.5 mg kg-1 per day,34%
same,Per cent cures (mice alive 60 days after inoculation),[7]; dose 12.5 mg kg-1 per day,0%
same,Per cent toxicity (mice with premature death),[7]; dose 12.5 mg kg-1 per day,0%
same,%ILS (group mean increase in lifespan),[7]; dose 25 mg kg-1 per day,96%
same,MST (mean survival time ± s.d.),[7]; dose 25 mg kg-1 per day,38.6 ± 4.8 days
same,Per cent cures (mice alive 60 days after inoculation),[7]; dose 25 mg kg-1 per day,0%
same,Per cent toxicity (mice with premature death),[7]; dose 25 mg kg-1 per day,0%
same,Optimal dose,[7]; i.p. once daily for 5 consecutive days,25 mg/kg/day
same,AUC,[8],42.53 ig per h ml-1
same,AUC value (rounded),[8],43 jg h-1 ml-1
same,Cmax,[8],14.13 ig ml-1
same,Cmax (rounded),[8],14 jg ml-1
same,Response rate,[9],30%
same,IC50,[10],4.9 ng/mL
same,Tmax,[11],1.5 h
same,half-life,[11],2.9 h
same,IC50,[12],2.7 ng/mL
